{
  "source": "the supplement of paper PMC10307832",
  "experiment_in_all_cases": "relative viability (nuclei count vs DMSO), 5 days (fraction); higher = more cells survive",
  "key": {"[1]": {"compound": "C1CC1C(=O)NC2=NNC3=C2C=CC(=C3)C4=CC(=CC=C4)C(=O)NC5CC5 [XMD13-2] + O=C(c1cc(Cc2n[nH]c(=O)c3ccccc23)ccc1F)N1CCN(C(=O)C2CC2)CC1 [Olaparib] (partner 8 µM)", "how_it_was_run": "(§1)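 Relative viability equals treated-well nuclei counts divided by vehicle-well nuclei counts. Counts came from 4× images of lung cancer cell lines grown in 1536-well plates for 5 days after pin-tool dosing on the day after seeding. Dosing used one drug alone or a fixed anchor-drug dose plus five library-drug doses (not always all listed) in √10 steps, and values are medians of duplicate plates.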"}, "[2]": {"compound": "C1CC1C(=O)NC2=NNC3=C2C=CC(=C3)C4=CC(=CC=C4)C(=O)NC5CC5 [XMD13-2] + Nc1nc2[nH]cc(CCc3ccc(C(=O)N[C@@H](CCC(=O)O)C(=O)O)cc3)c2c(=O)[nH]1 [Pemetrexed] (partner 0.2 µM)", "how_it_was_run": "as §1"}, "[3]": {"compound": "Cc1nc(Nc2ncc(C(=O)Nc3c(C)cccc3Cl)s2)cc(N2CCN(CCO)CC2)n1 [Dasatinib] + C[C@]1(O)C[C@@H](c2nc(-c3ccc4ccc(-c5ccccc5)nc4c3)c3c(N)nccn32)C1 [Linsitinib] (partner 1 µM)", "how_it_was_run": "as §1"}, "[4]": {"compound": "Cc1ccc(C(=O)Nc2cccc(C(F)(F)F)c2)cc1Nc1cncc(C(N)=O)c1 [ALW-II-49-7] + COc1cc2c(Oc3ccc(NC(=O)C4(C(=O)Nc5ccc(F)cc5)CC4)cc3F)ccnc2cc1OCCCN1CCOCC1 [Foretinib] (partner 0.25 µM)", "how_it_was_run": "as §1"}},
  "data": [
    {"cell line": "UMC-11", "values": [
      {"measurement": "relative viability", "setting": "[1]; first compound 0.05 µM", "value": 0.528},
      {"measurement": "relative viability", "setting": "[1]; first compound 0.1581 µM", "value": 0.407},
      {"measurement": "relative viability", "setting": "[1]; first compound 0.5 µM", "value": 0.39},
      {"measurement": "relative viability", "setting": "[1]; first compound 1.581 µM", "value": 0.364},
      {"measurement": "relative viability", "setting": "[1]; first compound 5 µM", "value": 0.318},
      {"measurement": "relative viability", "setting": "[2]; first compound 0.05 µM", "value": 0.914},
      {"measurement": "relative viability", "setting": "[2]; first compound 0.1581 µM", "value": 0.761},
      {"measurement": "relative viability", "setting": "[2]; first compound 0.5 µM", "value": 0.791},
      {"measurement": "relative viability", "setting": "[2]; first compound 1.581 µM", "value": 0.845},
      {"measurement": "relative viability", "setting": "[2]; first compound 5 µM", "value": 0.772},
      {"measurement": "relative viability", "setting": "[3]; first compound 0.005 µM", "value": 0.911},
      {"measurement": "relative viability", "setting": "[3]; first compound 0.01581 µM", "value": 0.827},
      {"measurement": "relative viability", "setting": "[3]; first compound 0.05 µM", "value": 0.543},
      {"measurement": "relative viability", "setting": "[3]; first compound 0.1581 µM", "value": 0.342},
      {"measurement": "relative viability", "setting": "[3]; first compound 0.5 µM", "value": 0.319},
      {"measurement": "relative viability", "setting": "[4]; first compound 0.08 µM", "value": 1.11},
      {"measurement": "relative viability", "setting": "[4]; first compound 0.253 µM", "value": 1.06},
      {"measurement": "relative viability", "setting": "[4]; first compound 0.8 µM", "value": 0.991},
      {"measurement": "relative viability", "setting": "[4]; first compound 2.53 µM", "value": 1.07},
      {"measurement": "relative viability", "setting": "[4]; first compound 8 µM", "value": 1.03}
    ]}
  ]
}
